# In patent US10576151B2, “Ciclopirox for use in modulation of glucose homeostasis” (UNIVERSITY OF SOUTH CAROLINA, priority 2015, dated 2020):
# Entries after “also recorded” stand apart in the source; their conditions may differ.
# Assays:
# p21-deficient mice = test: Fasting glucose in diet-induced diabetic p21-deficient mice; format: in vivo; conditions: CPX as in wt controls, delayed response (FIG. 5A)
# From the text: In Vivo Analysis of Anti-Diabetic Effect of CPX. Mice were randomly grouped. A group of C57BI/6 mice 4-5 weeks old, were fed with either a solution of 10% sucrose and a diet containing 40% kcal as a high-fat diet (HFD; Open Source Diets (New Brunswick, N.J., USA) D12451, 40% calories/fat with free access to (10%) sweetened water (sucrose) or a control chow diet containing 10% of kcal as fat (low-fat diet) and drinking water with no added sucrose (control). Mice with a glucose concentration exceeding 180 mg/dL were considered diabetic, after 2 consecutive glucose measurements. The blood glucose levels were measured using an Accu-Check blood glucose monitor (Roche, Indianapolis, Ind., USA) using blood sample collected from the tail vein. Diabetic mice were treated with either treated daily for 20 days by oral gavages with CPX (25 mg/kg) prepared in a solution (4% ethanol, 5.2% Tween 80, and 5.2% PEG 400) or vehicle control. […]
# Glucose Level Determination and Intraperitoneal Insulin Tolerance Test. […] Glucose levels of mice were measured by an Accu-Chek Active meter (ROCHE) with blood sample obtained from the tail. […] For insulin resistance test, mice were injected intraperitoneally at a dose of 0.75 units/kg with human insulin (0.75 U/kg body weight; Sigma) at different time points as indicated, as for glucose tolerance after insulin injection and blood glucose was measured as described. […]
# p21 = p21 expression in the pancreas of mice that received CPX (immunoblot); format: in vivo; conditions: wild type mice, oral CPX 0-25 mg/kg daily for 5 days; effect from as low as 5 mg/kg (FIG. 4)
# Procedure: Western Blotting. The mouse islets were treated with CPX 20 μM for 24 h and lysed in RIPA buffer [50 mM Tris, pH 7.2; 150 mM NaCl; 1% sodium deoxycholate; 0.1% SDS; 1% Triton-X 100; 10 mM NaF; 1 mM Na3VO4; protease inhibitor cocktail (1:1000, Sigma, St. Louis, Mo.)] and were subjected to immunoblot analysis by standard methods. Proteins were resolved on a 10% SDS-PAGE and transferred to a nitrocellulose membrane (Bio-Rad, Hercules, Calif.). […] After incubation with enhanced chemiluminescence reagents (Santa Cruz biotechnology Inc.), membranes were analyzed using an Image J software for Windows. To determine if CPX treatment induces p21 levels in the pancreas, mice received orally CPX at 0-25 mg/kg daily for 5 days and the levels of p21 were assessed. […]
# pancreatic islets = test: Insulin release from islets following glucose stimulation; format: cell-based, mice; conditions: insulin in the media (FIG. 11A)
# Procedure: In order to understand better how CPX operates in β cells, it was tested to determine if it affected the efficiency by which insulin is produced following glucose stimulation. […] In view of the antidiabetic activity of CPX in vivo, the inhibition of insulin release appears contradictory. Thus, it was hypothesized that reduced insulin secretion may be linked to reduced ER stress and blunted unfolded protein response, which in turn could explain in the long run the increased survival and functionality of the animals that received CPX. To test this hypothesis, islets were exposed to CPX and high glucose and the levels were tested of chaperones BiP, GRP94 and CHOP that reflect the intensity of the UPR. […] In line with these observations and consistently with the insulin levels in the media (FIG. 11 at A) were also the levels of insulin in the β islets (FIG. 11 at B).
# BiP, GRP94 and CHOP = test: Western blot of ER stress markers in islets in culture; format: cell-based, mouse
# Procedure: Western Blotting. The mouse islets were treated with CPX 20 μM for 24 h and lysed in RIPA buffer [50 mM Tris, pH 7.2; 150 mM NaCl; 1% sodium deoxycholate; 0.1% SDS; 1% Triton-X 100; 10 mM NaF; 1 mM Na3VO4; protease inhibitor cocktail (1:1000, Sigma, St. Louis, Mo.)] and were subjected to immunoblot analysis by standard methods. Proteins were resolved on a 10% SDS-PAGE and transferred to a nitrocellulose membrane (Bio-Rad, Hercules, Calif.). Membranes were probed overnight with GADD153 (F-168), sc-575 from Santa Cruz Biotechnology (1:50); p21 (F-5), sc-6246 from Santa Cruz Biotechnology (1:200); actin, clone C4 MAB1501 from Millipore (Billerica, Mass., USA) (1:2000); BiP antibody (cat. no. 3183) from Cell Signaling (Danvers, Mass., USA) (1:1000); GRP94 antibody (H-212), sc-11402 from Santa Cruz Biotechnology (1:500); insulin rabbit polyclonal H-86, sc-9168 from Santa Cruz Biotechnology (1:500) antibodies followed by incubation with horseradish peroxidase-conjugated (HRP) anti-mouse (1:10000), goat anti-rabbit IgG (1:10000, Santa Cruz biotechnology Inc., Santa Cruz, Calif., USA) for 1 hr. After incubation with enhanced chemiluminescence reagents (Santa Cruz biotechnology Inc.), membranes were analyzed using an Image J software for Windows.
# In order to understand better how CPX operates in β cells, it was tested to determine if it affected the efficiency by which insulin is produced following glucose stimulation. […] In view of the antidiabetic activity of CPX in vivo, the inhibition of insulin release appears contradictory. […]
# While modulation of insulin release by CPX constitutes a challenging mechanism by which CPX may affect ER stress, how CPX regulates insulin expression remains obscure. […] To test this hypothesis, islets were exposed to iron citrate, alone or combined with CPX, and the levels were recorded of chaperones BiP, GRP94 and CHOP, as well as of insulin.
structure (smiles),measurement,setting,value
"Cc1cc(C2CCCCC2)n(O)c(=O)c1 [CPX, 6-cyclohexyl-1-hydroxy-4-methylpyridin-2(1H)-one]",glucose regulation (fasting glucose),p21-deficient mice,responded significantly to CPX in terms of glucose regulation
same,p21 expression in the pancreas,p21,effectively stimulated the expression of p21
same,release of insulin,pancreatic islets,strong inhibition of insulin production; also recorded: suppressed the release of insulin
same,"ER stress induction (BiP, GRP94, CHOP)","BiP, GRP94 and CHOP; islets, iron citrate with concomitant CPX (FIG. 12A)",compromised the effects of iron citrate
same,"levels of BiP, GRP94 and CHOP","BiP, GRP94 and CHOP; wt islets, high glucose with CPX (FIG. 11)","alleviated the levels of BiP, GRP94 and CHOP"
